Laboratory results reported in patent publication US20040161813A1, “Structure of beta-ketoacyl-[acyl carrier protein] synthases complexed with inhibitors and methods of use thereof” (St. Jude Children's Research Hospital, priority 2000, published 2004).
“Also recorded” adds a separate entry of the source. Where two headings read alike, the source gives them in different places.

Key:
[1] = tested on: urinary tract and intraperitoneal bacterial infections; conditions: mice; cited from earlier work
B. subtilis FabF = B. subtilis FabF (Bacillus subtilis, UniProt O34340); assay: Inhibition of B. subtilis FabF in vitro; format: biochemical
[2] = target: T1, E. coli FabH (β-ketoacyl-ACP synthase III) (Escherichia coli, UniProt P0A6R0); assay: FabH filter disc assay with [1-14C]acetyl-CoA; format: biochemical
T1 construct: made in house
Method: A filter disc assay was used to assay FabH activity with [1-^14C]acetyl-CoA as described previously (15,18). The assays contained 100 μM ACP, 1 mM β-mercaptoethanol, 45 μM [^14C]acetyl-CoA (specific activity, 52.0 Ci/mole), and 50 μM malonyl-CoA, E. coli FabD (0.3 μg) and 0.1 M sodium phosphate buffer (pH 7.0) in a final volume of 40 μl. The reaction was initiated by the addition of FabH and the mixture was incubated at 37° C. for 12 min. A 35-μl aliquot was removed and deposited on a Whatman 3MM filter disc. The discs were washed with three changes (20 ml/disc for 20 min) of ice-cold trichloroacetic acid. The concentration of the trichloroacetic acid was reduced from 10 to 5 to 1% in each successive wash. The filters were dried and counted in 3 ml of scintillation cocktail.

[3] = cited from earlier work
[4] = target: T2, E. coli FabF (β-ketoacyl-ACP synthase II) (Escherichia coli, UniProt P0AAI5); assay: FabF radiochemical condensing enzyme assay with myristoyl-ACP; format: biochemical
T2 construct: made in house
Method: (§1) FabB and FabF radiochemical assay was performed using the scheme devised by Garwin et al. (11) using myristoyl-ACP as the substrate. The assays contained 100 μM ACP, 0.3 mM dithiothreitol, 1 mM EDTA, 0.1 M potassium phosphate buffer, pH 6.8, 50 μM [^14C]malonyl-CoA (specific activity 55 Ci/mole), 100 μM myristoyl-ACP, FabD (0.3 μg of protein), in a final volume of 20 μl. A mixture of ACP, 0.3 mM DTT, 1 mM EDTA, and the buffer was incubated at 37° C. for 30 min to ensure complete reduction ACP, and then the remaining components (except the condensing enzyme) were added. The mixture was then aliquoted into the assay tubes and the reaction was initiated by the addition of FabB or FabF. The reaction mixture was incubated at 37° C. for 20 min, then 400 μl of reducing agent (0.1 M K2HPO4, 0.4 M KCl, 30% tetrahydrofuran, and 5 mg/ml sodium borohydride) was added into the reaction tubes and incubated for 40 min.
(§2) Finally, 400 μl of toluene was added, vigorously mixed, and 300 μl of upper phase solution was counted in 3 ml of scintillation cocktail.

[5] = target: T3, E. coli FabB (β-ketoacyl-ACP synthase I) (Escherichia coli, UniProt P0A953); assay: FabB radiochemical condensing enzyme assay with myristoyl-ACP; format: biochemical
T3 construct: made in house; host or cells: pET-15b-FabB expression vector; Novagen expression strains
Method: as §1, §2

FabB = target: T4, FabB (Escherichia coli, UniProt P0A953); assay: Time course of FabB inhibition (reversibility); format: biochemical; conditions: for Reversibility of FabB inhibition: 20 μM TLM or 3 μM cerulenin, with or without 30 min preincubation
T4 construct: made in house; host or cells: pET-15b-FabB expression vector; Novagen expression strains
Method: The time course for the inhibition of FabB activity under five experimental conditions was determined to address the reversibility of the antibiotics. Time course for the FabB reaction in the absence of inhibitors (▾), in the presence of 20 μM TLM (●) or 3 μM cerulenin (∘). FabB was preincubated with either 20 μM TLM (▪) or 3 μM cerulenin (□) for 30 min prior to initiation of the reaction by the addition of the other substrates. FabB activity was measured using the radiochemical assay with myristoyl-ACP as the substrate as described under “Experimental Procedures” in the Example below.
as §1, §2
This hypothesis was examined by comparing the kinetics of TLM inhibition to that of cerulenin (FIG. 2), which is known to form a covalent complex with the active site cysteine of the condensing enzymes. […] This indicates the formation of the irreversible FabB-cerulenin binary complex. The same two types of time course experiments were performed with TLM (FIG. 2A).

FabB[H333N] = target: T5, FabB[H333N] (Escherichia coli, UniProt P0A953, H333N); assay: FabB[H333N] mutant radiochemical assay with 14:0-ACP primer; format: biochemical; conditions: inhibition by cerulenin
T5 construct: made in house; host or cells: pET-15b-FabB expression vector; Novagen expression strains
T5 sequence (P0A953 1-406 H333N): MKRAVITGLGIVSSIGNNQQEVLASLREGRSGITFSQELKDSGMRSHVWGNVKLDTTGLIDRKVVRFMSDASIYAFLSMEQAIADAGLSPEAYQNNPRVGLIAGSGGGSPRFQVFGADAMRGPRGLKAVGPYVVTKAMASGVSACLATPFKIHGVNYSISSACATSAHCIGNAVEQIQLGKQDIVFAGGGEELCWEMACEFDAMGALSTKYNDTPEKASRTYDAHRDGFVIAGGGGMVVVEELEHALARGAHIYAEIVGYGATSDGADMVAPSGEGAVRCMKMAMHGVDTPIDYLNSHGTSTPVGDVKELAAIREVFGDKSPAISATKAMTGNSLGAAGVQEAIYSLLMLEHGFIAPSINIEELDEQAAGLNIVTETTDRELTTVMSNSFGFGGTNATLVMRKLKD
Method: as §1, §2
Construction of the FabB[H333N] mutant—A portion of the fabB gene was amplified using the polymerase chain reaction with two specific primers. The first primer introduced the desired mutation, and extended over a unique AgeI site (5′-[…]-3′, SEQ ID NO:3). The second primer created a BamHI site downstream of the stop codon (5′-[…]-3′, SEQ ID NO:4). […]

T1 sequence (P0A6R0 whole entry): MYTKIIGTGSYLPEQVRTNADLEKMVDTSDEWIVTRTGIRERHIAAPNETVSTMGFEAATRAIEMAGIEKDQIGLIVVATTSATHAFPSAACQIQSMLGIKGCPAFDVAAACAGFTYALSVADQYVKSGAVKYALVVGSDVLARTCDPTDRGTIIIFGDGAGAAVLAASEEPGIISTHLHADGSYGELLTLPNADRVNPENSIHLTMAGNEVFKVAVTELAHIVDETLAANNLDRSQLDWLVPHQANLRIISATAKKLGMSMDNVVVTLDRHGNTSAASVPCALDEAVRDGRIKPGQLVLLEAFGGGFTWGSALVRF
T4 sequence (P0A953 whole entry): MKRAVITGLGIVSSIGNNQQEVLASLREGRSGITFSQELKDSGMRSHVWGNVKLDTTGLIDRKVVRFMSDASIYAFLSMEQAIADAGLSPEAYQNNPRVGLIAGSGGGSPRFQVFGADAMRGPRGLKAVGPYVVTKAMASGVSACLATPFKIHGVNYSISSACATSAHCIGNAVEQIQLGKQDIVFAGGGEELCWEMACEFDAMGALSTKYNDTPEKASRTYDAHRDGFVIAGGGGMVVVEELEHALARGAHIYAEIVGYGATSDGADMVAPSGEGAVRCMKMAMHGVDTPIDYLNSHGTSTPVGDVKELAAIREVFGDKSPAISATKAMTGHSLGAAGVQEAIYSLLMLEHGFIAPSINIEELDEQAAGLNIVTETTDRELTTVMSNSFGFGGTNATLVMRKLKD
T2 sequence (P0AAI5 whole entry): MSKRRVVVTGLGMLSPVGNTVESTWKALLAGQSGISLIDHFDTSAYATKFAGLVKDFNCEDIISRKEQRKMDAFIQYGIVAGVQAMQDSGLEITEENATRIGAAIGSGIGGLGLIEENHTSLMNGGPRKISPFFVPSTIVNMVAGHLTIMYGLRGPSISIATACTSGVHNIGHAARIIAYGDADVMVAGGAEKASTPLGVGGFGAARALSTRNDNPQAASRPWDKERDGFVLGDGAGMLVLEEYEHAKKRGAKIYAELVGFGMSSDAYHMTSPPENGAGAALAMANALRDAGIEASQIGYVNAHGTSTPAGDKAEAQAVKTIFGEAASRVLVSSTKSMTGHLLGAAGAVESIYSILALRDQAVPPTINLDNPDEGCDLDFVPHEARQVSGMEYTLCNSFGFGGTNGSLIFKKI
T3 sequence (P0A953 whole entry): as the sequence (P0A953 whole entry) above
B. subtilis FabF, sequence (O34340 whole entry): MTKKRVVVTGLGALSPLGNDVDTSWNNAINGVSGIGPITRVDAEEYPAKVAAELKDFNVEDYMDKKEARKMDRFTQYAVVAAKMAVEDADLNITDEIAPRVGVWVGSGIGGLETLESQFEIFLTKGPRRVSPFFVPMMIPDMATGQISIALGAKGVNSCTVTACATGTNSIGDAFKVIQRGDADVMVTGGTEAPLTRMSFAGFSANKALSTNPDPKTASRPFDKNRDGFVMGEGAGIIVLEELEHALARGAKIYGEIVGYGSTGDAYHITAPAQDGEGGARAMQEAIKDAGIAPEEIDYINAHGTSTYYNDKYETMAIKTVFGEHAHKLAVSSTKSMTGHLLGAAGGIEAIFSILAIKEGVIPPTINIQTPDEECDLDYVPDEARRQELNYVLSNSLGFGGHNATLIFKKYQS

For C=C/C(C)=C/C1(C)SC(=O)C(C)=C1O (stereo in doubt) [TLM, (4S)(2E,5E)-2,4,6-trimethyl-3-hydroxy-2,5,7-octatriene-4-thiolide], the “Protection against urinary tract and intraperitoneal bacterial infections” value [1] is given as “significant protection”, the “Inhibition of B. subtilis FabF in vitro” value (B. subtilis FabF) is given as “very weak inhibitor” and the IC50 [2] is given as 110 µM. The Toxicity to mice [3] was “not toxic”, the IC50 [4] was 6 µM and the IC50 [5] was 25 µM. The “Reversibility of FabB inhibition” value (FabB) was “reversible inhibitor; also recorded: reversibly inhibited”.
In the case of C/C=C/C/C=C/CCC(=O)[C@H]1O[C@H]1C(N)=O [cerulenin, (2R,3S)-2,3-epoxy-4-oxo-7,10-dodecandienolyamide], the “Sensitivity of FabH to inhibitor” value [2] is reported as “essentially resistant”, the IC50 ([2]; purified E. coli enzyme, acetyl-CoA primer, read-out: IC50 FabH) is reported as over 700 µM and the IC50 ([4]; purified E. coli enzyme, myristoyl-ACP substrate, read-out: IC50 FabF) is reported as 20 µM. The IC50 ([5]; purified E. coli enzyme, myristoyl-ACP (14:0-ACP) substrate, read-out: IC50 FabB) was 3 µM, the “Product formation after preincubation of inhibitor with FabB” value (FabB; 3 μM cerulenin preincubated 30 min, reaction initiated with substrates) was “no discernable product formation” and the “Reversibility of FabB inhibition” value (FabB) was “slow-binding, irreversible inhibitor; also recorded: irreversibly inhibited”. For the same compound, the IC50 (FabB[H333N]) was 30 µM.
